# Measured values from US20250320193A1, “OXOISOINDOLINYL SUBSTITUTED PIPERIDINEDIONE DERIVATIVE AND USE THEREOF” (GLUETACS THERAPEUTICS (SHANGHAI) CO., LTD., priority 2022, published 2025).
# Columns and labels:
# IKZF3 = IKZF3 (Homo sapiens (Human), UniProt Q96SW2+Q9UKT9); test: Western blot, substrate protein expression in hPBMC: IKZF3; assay type: cell-based; settings: hPBMC, compound 500 nM, 24 hours, Western blot
# Outline: (§1)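 hPBMC, 1×10^6 cells/mL, 24 h compound exposure; RIPA lysis, BCA protein assay, SDS-PAGE, NC membrane immunoblot. Densitometry vs internal control → % protein remaining; degradation % = 100% − remaining; DC50 = conc. at 50% of DMSO band signal.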
# IKZF1 = IKZF1 (Homo sapiens (Human), UniProt Q13422+Q96SW2); test: Western blot, substrate protein expression in hPBMC: IKZF1; assay type: cell-based; settings: hPBMC, compound 500 nM, 24 hours, Western blot
# Sequence of IKZF1 (Q13422 whole entry): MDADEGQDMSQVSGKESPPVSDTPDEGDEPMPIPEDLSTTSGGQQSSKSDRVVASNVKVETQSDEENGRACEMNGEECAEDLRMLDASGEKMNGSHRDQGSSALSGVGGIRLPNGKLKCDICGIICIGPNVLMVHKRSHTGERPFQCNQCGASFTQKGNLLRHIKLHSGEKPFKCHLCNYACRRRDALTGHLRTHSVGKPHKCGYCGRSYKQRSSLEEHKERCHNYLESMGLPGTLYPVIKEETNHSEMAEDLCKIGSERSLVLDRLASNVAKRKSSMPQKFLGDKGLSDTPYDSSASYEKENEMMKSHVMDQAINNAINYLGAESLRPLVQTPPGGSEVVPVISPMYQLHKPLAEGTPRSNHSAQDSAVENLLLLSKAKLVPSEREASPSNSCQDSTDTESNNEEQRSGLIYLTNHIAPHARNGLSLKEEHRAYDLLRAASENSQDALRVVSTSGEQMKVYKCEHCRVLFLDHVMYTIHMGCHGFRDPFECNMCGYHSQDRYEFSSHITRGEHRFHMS
# Sequence of IKZF1 (Q96SW2 whole entry): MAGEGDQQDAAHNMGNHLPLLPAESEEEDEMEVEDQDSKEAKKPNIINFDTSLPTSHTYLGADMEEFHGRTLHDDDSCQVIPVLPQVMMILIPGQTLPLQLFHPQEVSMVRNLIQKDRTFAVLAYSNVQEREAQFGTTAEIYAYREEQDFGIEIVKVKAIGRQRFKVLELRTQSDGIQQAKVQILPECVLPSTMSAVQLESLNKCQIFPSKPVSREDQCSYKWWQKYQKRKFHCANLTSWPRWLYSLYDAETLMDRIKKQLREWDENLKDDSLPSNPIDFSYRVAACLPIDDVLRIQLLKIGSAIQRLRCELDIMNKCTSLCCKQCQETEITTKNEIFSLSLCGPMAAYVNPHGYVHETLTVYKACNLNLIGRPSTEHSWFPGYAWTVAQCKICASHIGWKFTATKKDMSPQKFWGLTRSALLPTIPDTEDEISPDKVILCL
# Sequence of IKZF1 (Q16531 whole entry partner): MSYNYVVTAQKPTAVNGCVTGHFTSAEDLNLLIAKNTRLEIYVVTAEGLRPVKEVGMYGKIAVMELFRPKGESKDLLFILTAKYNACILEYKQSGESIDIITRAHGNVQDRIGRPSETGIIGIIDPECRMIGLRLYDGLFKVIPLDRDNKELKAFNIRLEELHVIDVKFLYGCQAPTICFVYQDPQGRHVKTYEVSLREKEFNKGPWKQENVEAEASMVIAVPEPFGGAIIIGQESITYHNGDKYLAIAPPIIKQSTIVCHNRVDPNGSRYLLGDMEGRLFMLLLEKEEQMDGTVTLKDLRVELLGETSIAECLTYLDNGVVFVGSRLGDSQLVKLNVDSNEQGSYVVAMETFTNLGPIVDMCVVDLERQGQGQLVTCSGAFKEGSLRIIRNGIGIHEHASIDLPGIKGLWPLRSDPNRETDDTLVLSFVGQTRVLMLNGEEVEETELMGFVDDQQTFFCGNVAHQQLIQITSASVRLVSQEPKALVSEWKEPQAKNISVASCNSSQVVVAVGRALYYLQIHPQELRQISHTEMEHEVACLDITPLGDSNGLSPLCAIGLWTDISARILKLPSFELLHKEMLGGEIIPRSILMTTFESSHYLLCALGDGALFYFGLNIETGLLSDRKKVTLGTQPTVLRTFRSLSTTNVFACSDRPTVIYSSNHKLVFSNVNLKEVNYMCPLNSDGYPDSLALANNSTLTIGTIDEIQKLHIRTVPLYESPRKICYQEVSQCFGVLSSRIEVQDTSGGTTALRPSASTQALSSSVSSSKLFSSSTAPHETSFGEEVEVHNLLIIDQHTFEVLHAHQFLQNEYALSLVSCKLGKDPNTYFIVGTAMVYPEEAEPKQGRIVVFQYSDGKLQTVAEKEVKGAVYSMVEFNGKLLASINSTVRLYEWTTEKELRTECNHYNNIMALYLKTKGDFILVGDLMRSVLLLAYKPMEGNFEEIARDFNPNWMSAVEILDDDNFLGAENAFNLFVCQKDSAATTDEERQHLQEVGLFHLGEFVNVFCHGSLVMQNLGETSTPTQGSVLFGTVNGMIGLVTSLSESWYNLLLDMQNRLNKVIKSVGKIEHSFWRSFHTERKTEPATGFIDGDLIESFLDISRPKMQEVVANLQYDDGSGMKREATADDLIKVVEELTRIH
# Outline: as §1
# [1] = target: human Cereblon WT GST-tagged protein (Homo sapiens (Human), UniProt Q96SW2); test: CRBN-binding affinity, HTRF (CEREBLON BINDING kit, CISBIO); settings: HTRF inhibitory activity
# Sequence of human Cereblon WT GST-tagged protein (Q96SW2 whole entry): as the sequence (Q96SW2 whole entry) above
# Outline: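 HTRF competition format: test compound displaces Thalidomide-Red from GST-tagged human Cereblon WT, detected with a Eu-labelled anti-GST antibody. Percent CRBN binding inhibition was derived from the 620 nm signal, normalized to solvent-control and protein-free blank wells.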
# GSPT1 = GSPT1 (Homo sapiens (Human), UniProt P15170+Q96SW2); test: Western blot, substrate protein expression in hPBMC: GSPT1; assay type: cell-based; settings: hPBMC, compound 500 nM, 24 hours, Western blot
# Sequence of GSPT1 (P15170 whole entry): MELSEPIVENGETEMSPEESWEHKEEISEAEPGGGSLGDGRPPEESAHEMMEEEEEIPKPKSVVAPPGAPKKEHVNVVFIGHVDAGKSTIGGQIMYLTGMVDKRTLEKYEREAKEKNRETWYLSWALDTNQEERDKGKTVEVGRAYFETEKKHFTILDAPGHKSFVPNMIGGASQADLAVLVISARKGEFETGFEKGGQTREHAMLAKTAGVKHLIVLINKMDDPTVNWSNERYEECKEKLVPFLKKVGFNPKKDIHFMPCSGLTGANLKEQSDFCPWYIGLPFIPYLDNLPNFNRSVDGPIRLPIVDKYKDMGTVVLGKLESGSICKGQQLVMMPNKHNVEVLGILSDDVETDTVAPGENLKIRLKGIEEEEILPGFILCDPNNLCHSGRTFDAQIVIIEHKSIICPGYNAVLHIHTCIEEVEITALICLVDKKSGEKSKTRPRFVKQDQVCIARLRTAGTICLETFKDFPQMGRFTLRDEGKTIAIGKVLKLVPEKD
# Sequence of GSPT1 (Q96SW2 whole entry): as the sequence (Q96SW2 whole entry) above
# Sequence of GSPT1 (Q16531 whole entry partner): as the sequence (Q16531 whole entry partner) above
# Outline: as §1
# Sequence of IKZF3 (Q9UKT9 whole entry): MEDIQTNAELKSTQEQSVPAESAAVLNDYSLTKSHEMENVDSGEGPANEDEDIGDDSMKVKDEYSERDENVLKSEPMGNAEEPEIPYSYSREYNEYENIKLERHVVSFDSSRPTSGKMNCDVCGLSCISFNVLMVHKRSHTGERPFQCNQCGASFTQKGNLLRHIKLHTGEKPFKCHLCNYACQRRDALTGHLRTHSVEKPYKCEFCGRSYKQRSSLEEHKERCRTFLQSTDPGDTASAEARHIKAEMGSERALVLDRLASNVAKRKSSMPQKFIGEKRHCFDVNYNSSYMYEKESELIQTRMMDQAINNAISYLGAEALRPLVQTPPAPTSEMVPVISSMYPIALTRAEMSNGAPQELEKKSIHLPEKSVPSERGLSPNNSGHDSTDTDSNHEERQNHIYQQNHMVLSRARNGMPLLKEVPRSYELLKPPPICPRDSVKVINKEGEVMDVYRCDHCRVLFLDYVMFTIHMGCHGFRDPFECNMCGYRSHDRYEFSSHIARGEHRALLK
# Sequence of IKZF3 (Q96SW2 whole entry): as the sequence (Q96SW2 whole entry) above
# Sequence of IKZF3 (Q16531 whole entry partner): as the sequence (Q16531 whole entry partner) above
IC50 [1] [µM],SMILES,substrate protein remaining % IKZF3 (IKZF3),substrate protein remaining % IKZF1 (IKZF1),substrate protein remaining % GSPT1 (GSPT1)
0.5 to 1,"O=C1CCC(N2Cc3cc(C(=O)N4CCN(C(c5ccc(F)cc5)c5ccc(F)cc5)CC4)cc(F)c3C2=O)C(=O)N1 (centres unmarked) [GT-05882, 3-(5-(4-(bis(4-fluorophenyl)methyl)piperazine-1-carbonyl)-7-fluoro-1-oxoisoindolin-2-yl)piperidine-2,6-dione]",B (B represents substrate protein remaining % > 50%),B (B represents substrate protein remaining % > 50%),A (A represents 0% ≤ substrate protein remaining % ≤ 50%)
1 to 1.9,"O=C1CCC(N2Cc3cc(C(=O)N4CCN(C(c5ccc(Cl)cc5)c5ccc(Cl)cc5)CC4)ccc3C2=O)C(=O)N1 (centres unmarked) [GT-05886, 3-(5-(4-(bis(4-chlorophenyl)methyl)piperazine-1-carbonyl)-1-oxoisoindolin-2-yl)piperidine-2,6-dione]",A (A represents 0% ≤ substrate protein remaining % ≤ 50%),B (B represents substrate protein remaining % > 50%),A (A represents 0% ≤ substrate protein remaining % ≤ 50%)
0.5 to 1,"O=C1CCC(N2Cc3c(CN4CC5(CCN(C(c6ccccc6)c6ccccc6)CC5)C4)cccc3C2=O)C(=O)N1 (centres unmarked) [GT-05905, 3-(4-((7-benzhydryl-2,7-diazaspiro[3.5]nonan-2-yl)methyl)-1-oxoisoindolin-2-yl)piperidine-2,6-dione]",B (B represents substrate protein remaining % > 50%),B (B represents substrate protein remaining % > 50%),A (A represents 0% ≤ substrate protein remaining % ≤ 50%)
< 0.5,"CC1CN(C(c2ccccc2)c2ccccc2)CC(C)N1C(=O)c1ccc2c(c1)CN(C1CCC(=O)NC1=O)C2=O (centres unmarked) [GT-05920, 3-(5-(4-benzhydryl-2,6-dimethylpiperazine-1-carbonyl)-1-oxoisoindolin-2-yl)piperidine-2,6-dione]",B (B represents substrate protein remaining % > 50%),B (B represents substrate protein remaining % > 50%),A (A represents 0% ≤ substrate protein remaining % ≤ 50%)
1 to 1.9,"CC1CN(C(c2ccccc2)c2ccccc2)CC(C)N1C(=O)c1ccc2c(c1)C(=O)N(C1CCC(=O)NC1=O)C2=O (centres unmarked) [GT-05922, 5-(4-benzhydryl-2,6-dimethylpiperazine-1-carbonyl)-2-(2,6-dioxopiperidin-3-yl) isoindoline-1,3-dione]",B (B represents substrate protein remaining % > 50%),B (B represents substrate protein remaining % > 50%),A (A represents 0% ≤ substrate protein remaining % ≤ 50%)
< 0.5,"O=C1CCC(N2Cc3cc(C(=O)N4CCC(N(c5ccccc5)c5ccccn5)CC4)ccc3C2=O)C(=O)N1 (centres unmarked) [GT-05923, 3-(1-oxo-5-(4-(phenyl(pyridin-2-yl)amino)piperidine-1-carbonyl)isoindolin-2-yl)piperidine-2,6-dione]",B (B represents substrate protein remaining % > 50%),B (B represents substrate protein remaining % > 50%),A (A represents 0% ≤ substrate protein remaining % ≤ 50%)
0.5 to 1,"O=C1CCC(N2Cc3cc(C(=O)N4CCC(N(c5ccccc5)c5ccccn5)CC4)cc(F)c3C2=O)C(=O)N1 (centres unmarked) [GT-05924, 3-(7-fluoro-1-oxo-5-(4-(phenyl(pyridin-2-yl)amino)piperidine-1-carbonyl)isoindolin-2-yl)piperidine-2,6-dione]",B (B represents substrate protein remaining % > 50%),B (B represents substrate protein remaining % > 50%),A (A represents 0% ≤ substrate protein remaining % ≤ 50%)
< 0.5,"O=C1CCC(N2Cc3cc(C(=O)N4CCC(N(c5ccccc5)c5ccccc5)CC4)ccc3C2=O)C(=O)N1 (centres unmarked) [GT-05926, 3-(5-(4-(diphenylamino)piperidine-1-carbonyl)-1-oxoisoindolin-2-yl)piperidine-2,6-dione]",B (B represents substrate protein remaining % > 50%),B (B represents substrate protein remaining % > 50%),A (A represents 0% ≤ substrate protein remaining % ≤ 50%)
< 0.5,"O=C1CCC(N2Cc3cc(C(=O)N4CCC(N(c5ccccc5)c5ccccc5)CC4)cc(F)c3C2=O)C(=O)N1 (centres unmarked) [GT-05927, 3-(5-(4-(diphenylamino)piperidine-1-carbonyl)-7-fluoro-1-oxoisoindolin-2-yl)piperidine-2,6-dione]",B (B represents substrate protein remaining % > 50%),B (B represents substrate protein remaining % > 50%),A (A represents 0% ≤ substrate protein remaining % ≤ 50%)
0.5 to 1,"O=C1CCC(N2Cc3c(C(=O)N4CCN(C(c5ccccc5)c5ccccn5)CC4)cccc3C2=O)C(=O)N1 (centres unmarked) [GT-05929, 3-(1-oxo-4-(4-(phenyl(pyridin-2-yl)methyl)piperazine-1-carbonyl)isoindolin-2-yl)piperidine-2,6-dione]",A (A represents 0% ≤ substrate protein remaining % ≤ 50%),A (A represents 0% ≤ substrate protein remaining % ≤ 50%),A (A represents 0% ≤ substrate protein remaining % ≤ 50%)
< 0.5,"O=C1CCC(N2Cc3c(C(=O)N4CCN(C(c5ccc(F)cc5)c5ccc(F)cc5)CC4)cccc3C2=O)C(=O)N1 (centres unmarked) [GT-05930, 3-(4-(4-(bis(4-fluorophenyl)methyl)piperazine-1-carbonyl)-1-oxoisoindolin-2-yl)piperidine-2,6-dione]",B (B represents substrate protein remaining % > 50%),B (B represents substrate protein remaining % > 50%),A (A represents 0% ≤ substrate protein remaining % ≤ 50%)
1 to 1.9,"CC1(C)CN(Cc2cc3c(cc2F)C(=O)N(C2CCC(=O)NC2=O)C3)CCN1C(c1ccccc1)c1ccccc1 (centres unmarked) [GT-05960, 3-(5-((4-benzhydryl-3,3-dimethylpiperazin-1-yl)methyl)-6-fluoro-1-oxoisoindolin-2-yl)piperidine-2,6-dione]",A (A represents 0% ≤ substrate protein remaining % ≤ 50%),B (B represents substrate protein remaining % > 50%),A (A represents 0% ≤ substrate protein remaining % ≤ 50%)
0.5 to 1,"CC1(C)CN(Cc2cc(F)c3c(c2)CN(C2CCC(=O)NC2=O)C3=O)CCN1C(c1ccccc1)c1ccccc1 (centres unmarked) [GT-05961, 3-(5-((4-benzhydryl-3,3-dimethylpiperazin-1-yl)methyl)-7-fluoro-1-oxoisoindolin-2-yl)piperidine-2,6-dione]",A (A represents 0% ≤ substrate protein remaining % ≤ 50%),B (B represents substrate protein remaining % > 50%),A (A represents 0% ≤ substrate protein remaining % ≤ 50%)
0.5 to 1,"O=C1CCC(N2Cc3cc(CN4CC5CCC4CN5C(c4ccccc4)c4ccccc4)c(F)cc3C2=O)C(=O)N1 (centres unmarked) [GT-05963, 3-(5-((5-benzhydryl-2,5-diazabicyclo[2.2.2]octan-2-yl)methyl)-6-fluoro-1-oxoisoindolin-2-yl)piperidine-2,6-dione]",B (B represents substrate protein remaining % > 50%),B (B represents substrate protein remaining % > 50%),A (A represents 0% ≤ substrate protein remaining % ≤ 50%)
1 to 1.9,"CC1CN(Cc2ccc3c(c2F)CN(C2CCC(=O)NC2=O)C3=O)CC(C)N1C(c1ccccc1)c1ccccc1 (centres unmarked) [GT-05965, 3-(5-((4-benzhydryl-3,5-dimethylpiperazin-1-yl)methyl)-4-fluoro-1-oxoisoindolin-2-yl)piperidine-2,6-dione]",A (A represents 0% ≤ substrate protein remaining % ≤ 50%),A (A represents 0% ≤ substrate protein remaining % ≤ 50%),A (A represents 0% ≤ substrate protein remaining % ≤ 50%)
1 to 1.9,"CC1CN(Cc2cc3c(cc2F)C(=O)N(C2CCC(=O)NC2=O)C3)CC(C)N1C(c1ccccc1)c1ccccc1 (centres unmarked) [GT-05966, 3-(5-((4-benzhydryl-3,5-dimethylpiperazin-1-yl)methyl)-6-fluoro-1-oxoisoindolin-2-yl)piperidine-2,6-dione]",B (B represents substrate protein remaining % > 50%),B (B represents substrate protein remaining % > 50%),A (A represents 0% ≤ substrate protein remaining % ≤ 50%)
1 to 1.9,"CC1CN(Cc2cc(F)c3c(c2)CN(C2CCC(=O)NC2=O)C3=O)CC(C)N1C(c1ccccc1)c1ccccc1 (centres unmarked) [GT-05967, 3-(5-((4-benzhydryl-3,5-dimethylpiperazin-1-yl)methyl)-7-fluoro-1-oxoisoindolin-2-yl)piperidine-2,6-dione]",A (A represents 0% ≤ substrate protein remaining % ≤ 50%),B (B represents substrate protein remaining % > 50%),A (A represents 0% ≤ substrate protein remaining % ≤ 50%)
